Source: the supplement of paper PMC10307832

Tests used:
Experiment in all cases: relative viability (nuclei count vs DMSO), 5 days (fraction); higher = more cells survive
Calu-6 = tested on: Calu-6
How it was run: (§1)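 Values are medians from duplicate plates. Each reflects relative viability, defined as the nuclei count of treated wells over that of vehicle wells. Lung cancer cell lines in 1536-well plates were pin-tool dosed one day after seeding with one drug alone or with a fixed anchor-drug dose plus five library-drug doses (not always all listed) in √10 steps, then fixed, stained and imaged at 4× after 5 days.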

IA-LM = tested on: IA-LM
How it was run: as §1

NCI-H1703 = tested on: NCI-H1703
How it was run: as §1

EBC-1 = tested on: EBC-1
How it was run: as §1

NCI-H1437 = tested on: NCI-H1437
How it was run: as §1

NCI-H1355 = tested on: NCI-H1355
How it was run: as §1

LCLC-97TM1 = tested on: LCLC-97TM1
How it was run: as §1

NCI-H1299 = tested on: NCI-H1299
How it was run: as §1

NCI-H596 = tested on: NCI-H596
How it was run: as §1

`Cc1csc(=NC2CCCCC2)n1/N=C/c1ccc(O)c(O)c1O` [MIM1] + CC(C)C[C@H](NC(=O)[C@H](Cc1ccccc1)NC(=O)c1cnccn1)B(O)O [Bortezomib] (partner 0.002 µM) showed a relative viability (Calu-6; first compound 0.2 µM) of 1.05, a relative viability (Calu-6; first compound 0.6325 µM) of 1.1 and a relative viability (Calu-6; first compound 2 µM) of 0.923. The relative viability (Calu-6; first compound 6.325 µM) was 0.289, the relative viability (Calu-6; first compound 20 µM) was 0.203 and the relative viability (IA-LM; first compound 0.2 µM) was 0.754. The relative viability (IA-LM; first compound 0.6325 µM) was 0.792, the relative viability (IA-LM; first compound 2 µM) was 0.783 and the relative viability (IA-LM; first compound 6.325 µM) was 0.275. The relative viability (IA-LM; first compound 20 µM) was 0.0874, the relative viability (NCI-H1703; first compound 0.2 µM) was 0.386 and the relative viability (NCI-H1703; first compound 0.6325 µM) was 0.358. For the same compound, the relative viability (NCI-H1703; first compound 2 µM) was 0.318, the relative viability (NCI-H1703; first compound 6.325 µM) was 0.155 and the relative viability (NCI-H1703; first compound 20 µM) was 0.133. For the same compound, the relative viability (EBC-1; first compound 0.2 µM) was 0.496, the relative viability (EBC-1; first compound 0.6325 µM) was 0.569 and the relative viability (EBC-1; first compound 2 µM) was 0.647. For the same compound, the relative viability (EBC-1; first compound 6.325 µM) was 0.324, the relative viability (EBC-1; first compound 20 µM) was 0.242 and the relative viability (NCI-H1437; first compound 0.2 µM) was 0.441. For the same compound, the relative viability (NCI-H1437; first compound 0.6325 µM) was 0.427, the relative viability (NCI-H1437; first compound 2 µM) was 0.536 and the relative viability (NCI-H1437; first compound 6.325 µM) was 0.221. It also gave a relative viability (NCI-H1437; first compound 20 µM) of 0.112, a relative viability (NCI-H1355; first compound 0.2 µM) of 1.26 and a relative viability (NCI-H1355; first compound 0.6325 µM) of 0.978. The relative viability (NCI-H1355; first compound 2 µM) was 1.22, the relative viability (NCI-H1355; first compound 6.325 µM) was 0.871 and the relative viability (NCI-H1355; first compound 20 µM) was 0.916. It also gave a relative viability (LCLC-97TM1; first compound 0.2 µM) of 0.66, a relative viability (LCLC-97TM1; first compound 0.6325 µM) of 0.811 and a relative viability (LCLC-97TM1; first compound 2 µM) of 0.214. The relative viability (LCLC-97TM1; first compound 6.325 µM) was 0.346, the relative viability (LCLC-97TM1; first compound 20 µM) was 0.0592 and the relative viability (NCI-H1299; first compound 0.2 µM) was 1.01. It also gave a relative viability (NCI-H1299; first compound 0.6325 µM) of 1.03, a relative viability (NCI-H1299; first compound 2 µM) of 0.999 and a relative viability (NCI-H1299; first compound 6.325 µM) of 0.965. For the same compound, the relative viability (NCI-H1299; first compound 20 µM) was 0.994, the relative viability (NCI-H596; first compound 0.6325 µM) was 1.16 and the relative viability (NCI-H596; first compound 2 µM) was 0.988. For the same compound, the relative viability (NCI-H596; first compound 6.325 µM) was 0.999 and the relative viability (NCI-H596; first compound 20 µM) was 0.951.

Work on `CN1CCN(CCOc2cc(OC3CCOCC3)c3c(Nc4c(Cl)ccc5c4OCO5)ncnc3c2)CC1` [Saracatinib] + CC(C)C[C@H](NC(=O)[C@H](Cc1ccccc1)NC(=O)c1cnccn1)B(O)O [Bortezomib] (partner 0.002 µM) yielded a relative viability (Calu-6; first compound 0.02 µM) of 0.939, a relative viability (Calu-6; first compound 0.2 µM) of 0.796 and a relative viability (Calu-6; first compound 0.6325 µM) of 0.807. It also gave a relative viability (Calu-6; first compound 2 µM) of 0.656, a relative viability (IA-LM; first compound 0.02 µM) of 0.87 and a relative viability (IA-LM; first compound 0.6325 µM) of 1.31. The relative viability (IA-LM; first compound 2 µM) was 0.909, the relative viability (NCI-H1703; first compound 0.02 µM) was 0.304 and the relative viability (NCI-H1703; first compound 0.2 µM) was 0.314. For the same compound, the relative viability (NCI-H1703; first compound 0.6325 µM) was 0.293, the relative viability (NCI-H1703; first compound 2 µM) was 0.22 and the relative viability (EBC-1; first compound 0.02 µM) was 0.553. It also gave a relative viability (EBC-1; first compound 0.2 µM) of 0.484, a relative viability (EBC-1; first compound 0.6325 µM) of 0.628 and a relative viability (EBC-1; first compound 2 µM) of 0.531. It also gave a relative viability (NCI-H1437; first compound 0.02 µM) of 0.502, a relative viability (NCI-H1437; first compound 0.2 µM) of 0.505 and a relative viability (NCI-H1437; first compound 0.6325 µM) of 0.437. It also gave a relative viability (NCI-H1437; first compound 2 µM) of 0.453, a relative viability (NCI-H1355; first compound 0.02 µM) of 1.18 and a relative viability (NCI-H1355; first compound 0.2 µM) of 1.15. For the same compound, the relative viability (NCI-H1355; first compound 0.6325 µM) was 1.44, the relative viability (NCI-H1355; first compound 2 µM) was 1.17 and the relative viability (LCLC-97TM1; first compound 0.02 µM) was 0.786. The relative viability (LCLC-97TM1; first compound 0.6325 µM) was 0.995, the relative viability (LCLC-97TM1; first compound 2 µM) was 0.523 and the relative viability (NCI-H1299; first compound 0.02 µM) was 1.05. The relative viability (NCI-H1299; first compound 0.2 µM) was 1.03, the relative viability (NCI-H1299; first compound 0.6325 µM) was 1.01 and the relative viability (NCI-H1299; first compound 2 µM) was 1.09. The relative viability (NCI-H596; first compound 0.02 µM) was 0.98, the relative viability (NCI-H596; first compound 0.2 µM) was 0.999 and the relative viability (NCI-H596; first compound 0.6325 µM) was 1.01. For the same compound, the relative viability (NCI-H596; first compound 2 µM) was 0.814.

With `Cc1cn(-c2cc(NC(=O)c3ccc(C)c(Nc4nccc(-c5cccnc5)n4)c3)cc(C(F)(F)F)c2)cn1` [Nilotinib] + CC(C)C[C@H](NC(=O)[C@H](Cc1ccccc1)NC(=O)c1cnccn1)B(O)O [Bortezomib] (partner 0.002 µM) the relative viability (Calu-6; first compound 0.001 µM) was 0.934, the relative viability (Calu-6; first compound 0.003162 µM) was 1.02 and the relative viability (Calu-6; first compound 0.01 µM) was 0.929. For the same compound, the relative viability (Calu-6; first compound 0.03162 µM) was 1.02, the relative viability (Calu-6; first compound 0.1 µM) was 1.01 and the relative viability (IA-LM; first compound 0.001 µM) was 0.616. It also gave a relative viability (IA-LM; first compound 0.003162 µM) of 0.698, a relative viability (IA-LM; first compound 0.01 µM) of 0.685 and a relative viability (IA-LM; first compound 0.03162 µM) of 0.808. The relative viability (IA-LM; first compound 0.1 µM) was 0.714, the relative viability (NCI-H1703; first compound 0.001 µM) was 0.232 and the relative viability (NCI-H1703; first compound 0.003162 µM) was 0.208. It also gave a relative viability (NCI-H1703; first compound 0.01 µM) of 0.148, a relative viability (NCI-H1703; first compound 0.03162 µM) of 0.141 and a relative viability (NCI-H1703; first compound 0.1 µM) of 0.125. It also gave a relative viability (EBC-1; first compound 0.001 µM) of 0.488, a relative viability (EBC-1; first compound 0.003162 µM) of 0.55 and a relative viability (EBC-1; first compound 0.01 µM) of 0.417. For the same compound, the relative viability (EBC-1; first compound 0.03162 µM) was 0.437, the relative viability (EBC-1; first compound 0.1 µM) was 0.241 and the relative viability (NCI-H1437; first compound 0.001 µM) was 0.485. It also gave a relative viability (NCI-H1437; first compound 0.003162 µM) of 0.505, a relative viability (NCI-H1437; first compound 0.01 µM) of 0.651 and a relative viability (NCI-H1437; first compound 0.03162 µM) of 0.367. The relative viability (NCI-H1437; first compound 0.1 µM) was 0.161, the relative viability (NCI-H1355; first compound 0.001 µM) was 1.09 and the relative viability (NCI-H1355; first compound 0.003162 µM) was 1.52. The relative viability (NCI-H1355; first compound 0.01 µM) was 1.28, the relative viability (NCI-H1355; first compound 0.03162 µM) was 1.15 and the relative viability (NCI-H1355; first compound 0.1 µM) was 0.639. The relative viability (LCLC-97TM1; first compound 0.001 µM) was 0.454, the relative viability (LCLC-97TM1; first compound 0.003162 µM) was 0.158 and the relative viability (LCLC-97TM1; first compound 0.01 µM) was 0.946. It also gave a relative viability (LCLC-97TM1; first compound 0.03162 µM) of 0.295, a relative viability (LCLC-97TM1; first compound 0.1 µM) of 0.511 and a relative viability (NCI-H1299; first compound 0.003162 µM) of 1.07. For the same compound, the relative viability (NCI-H1299; first compound 0.01 µM) was 1.05, the relative viability (NCI-H1299; first compound 0.03162 µM) was 1.01 and the relative viability (NCI-H1299; first compound 0.1 µM) was 0.933. It also gave a relative viability (NCI-H596; first compound 0.001 µM) of 1.16, a relative viability (NCI-H596; first compound 0.003162 µM) of 1.03 and a relative viability (NCI-H596; first compound 0.01 µM) of 1.18. For the same compound, the relative viability (NCI-H596; first compound 0.03162 µM) was 1.21 and the relative viability (NCI-H596; first compound 0.1 µM) was 0.96.
